# Results published in patent US20110287470A1, “CELL CULTURE METHOD TO FORM AGGREGATES” (priority 2008, published 2011).
# System: cardiac tissue generated from cardiomyocytes derived from human ESCs
# Assay: Multi-electrode array electrophysiological recordings of CardioSpot cardiac tissue
# Format: cell-based
# Settings: for repolarising potential (delay measured from the first signal): control 140 ms, FIG. 8
# Procedure: CardioSpot made using primary or stem cell derived cardiomyocytes are placed onto the porous MEAs. Electrophysiological recordings were performed either through the supporting membrane or from under the membrane in order to get a direct contact of the tissues with recording electrodes. Control recording were performed using the culture medium as well a the solution used for reference molecules ([…], and lidocaine) Pharmacological experiments were carried out using reference compounds to characterise and validate the cardiac tissue generated from cardiomyocytes derived from human ESCs and engineered using the method of invention.
structure (smiles),measurement,setting,value
Cc1cccc(CCN2CCC(C(=O)c3ccc(NS(C)(=O)=O)cc3)CC2)n1 [E4031],repolarising potential (delay measured from the first signal),"30 nM E4031, after 5 min",155 ms
same,repolarising potential (delay measured from the first signal),"30 nM E4031, after 15 min",173 ms
CCN(CC)CC(=O)Nc1c(C)cccc1C [lidocaine],decrease of the amplitude of the electrophysiological signals,"30 uM lidocaine, after 6 minutes, FIG. 7",50%
same,amplitude of the first signal (predominantly dependent on sodium channel opening),"lidocaine, within few minutes, FIG. 7",dramatic decrease of the amplitude
